PubChem BioAssay (NCI)
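Results reflect a 48-hour exposure of cells in 96-well plates to compound at five concentrations. GI50: concentration for 50% inhibition of growth. TGI: concentration producing complete growth inhibition.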

Experiments:
Assay in all cases: NCI-60 cell line screen, 48 h
[1] = test system: HCT-15 colon
[2] = test system: NCI-H23 lung
[3] = test system: DU-145 prostate
[4] = test system: SNB-19 CNS
[5] = test system: SK-MEL-28 melanoma
[6] = test system: HCT-116 colon
[7] = test system: NCI-H522 lung
[8] = test system: SK-MEL-5 melanoma
[9] = test system: PC-3 prostate
[10] = test system: LOX IMVI melanoma
[11] = test system: NCI/ADR-RES ovarian
[12] = test system: ACHN renal
[13] = test system: SW-620 colon
[14] = test system: U251 CNS
[15] = test system: M14 melanoma
[16] = test system: UACC-62 melanoma
[17] = test system: BT-549 breast
[18] = test system: KM12 colon
[19] = test system: SF-295 CNS
[20] = test system: MDA-N
[21] = test system: RXF 393 renal
[22] = test system: T-47D breast
[23] = test system: OVCAR-8 ovarian
[24] = test system: HT29 colon
[25] = test system: UO-31 renal
[26] = test system: SR leukemia
[27] = test system: IGROV1 ovarian
[28] = test system: SK-MEL-2 melanoma
[29] = test system: SF-268 CNS
[30] = test system: EKVX NSCLC
[31] = test system: MDA-MB-435
[32] = test system: A549 NSCLC
[33] = test system: OVCAR-3 ovarian
[34] = test system: A498 renal
[35] = test system: HS 578T breast
[36] = test system: K-562 leukemia
[37] = test system: HOP-62 NSCLC
[38] = test system: SNB-75 CNS
[39] = test system: MDA-MB-231 breast
[40] = test system: 786-0 renal
[41] = test system: OVCAR-4 ovarian
[42] = test system: OVCAR-5 ovarian
[43] = test system: HOP-92 NSCLC
[44] = test system: NCI-H226 lung
[45] = test system: CCRF-CEM leukemia
[46] = test system: CAKI-1 renal
[47] = test system: NCI-H460 lung
[48] = test system: SN12C renal
[49] = test system: MALME-3M melanoma
[50] = test system: MOLT-4 leukemia
[51] = test system: TK-10 renal

O=C(O)C[O][Sb][O]CC(=O)O
GI50 [1]: > 100 µM
TGI [1]: > 100 µM
GI50 [2]: > 100 µM
TGI [2]: > 100 µM
GI50 [3]: > 100 µM
TGI [3]: > 100 µM
GI50 [4]: > 100 µM
TGI [4]: > 100 µM
GI50 [5]: > 100 µM
TGI [5]: > 100 µM
GI50 [6]: > 100 µM
TGI [6]: > 100 µM
GI50 [7]: > 100 µM
TGI [7]: > 100 µM
GI50 [8]: > 100 µM
TGI [8]: > 100 µM
GI50 [9]: > 100 µM
TGI [9]: > 100 µM
GI50 [10]: > 100 µM
TGI [10]: > 100 µM
GI50 [11]: > 100 µM
TGI [11]: > 100 µM
GI50 [12]: > 100 µM
TGI [12]: > 100 µM
GI50 [13]: > 100 µM
TGI [13]: > 100 µM
GI50 [14]: > 100 µM
TGI [14]: > 100 µM
GI50 [15]: > 100 µM
TGI [15]: > 100 µM
GI50 [16]: > 100 µM
TGI [16]: > 100 µM
GI50 [17]: > 100 µM
TGI [17]: > 100 µM
GI50 [18]: > 100 µM
TGI [18]: > 100 µM
GI50 [19]: > 100 µM
TGI [19]: > 100 µM
GI50 [20]: > 100 µM
TGI [20]: > 100 µM
GI50 [21]: > 100 µM
TGI [21]: > 100 µM
GI50 [22]: > 100 µM
TGI [22]: > 100 µM
GI50 [23]: > 100 µM
TGI [23]: > 100 µM
GI50 [24]: > 100 µM
TGI [24]: > 100 µM
GI50 [25]: > 100 µM
TGI [25]: > 100 µM
GI50 [26]: > 100 µM
TGI [26]: > 100 µM
GI50 [27]: > 100 µM
TGI [27]: > 100 µM
GI50 [28]: > 100 µM
TGI [28]: > 100 µM
GI50 [29]: > 100 µM
TGI [29]: > 100 µM
GI50 [30]: > 100 µM
TGI [30]: > 100 µM
GI50 [31]: > 100 µM
TGI [31]: > 100 µM
GI50 [32]: > 100 µM
TGI [32]: > 100 µM
GI50 [33]: > 100 µM
TGI [33]: > 100 µM
GI50 [34]: > 100 µM
TGI [34]: > 100 µM
GI50 [35]: > 100 µM
TGI [35]: > 100 µM
GI50 [36]: > 100 µM
TGI [36]: > 100 µM
GI50 [37]: > 100 µM
TGI [37]: > 100 µM
GI50 [38]: > 100 µM
TGI [38]: > 100 µM
GI50 [39]: > 100 µM
TGI [39]: > 100 µM
GI50 [40]: > 100 µM
TGI [40]: > 100 µM
GI50 [41]: > 100 µM
TGI [41]: > 100 µM
GI50 [42]: > 100 µM
TGI [42]: > 100 µM
GI50 [43]: > 100 µM
TGI [43]: > 100 µM
GI50 [44]: > 100 µM
TGI [44]: > 100 µM
GI50 [45]: > 100 µM
TGI [45]: > 100 µM
GI50 [46]: > 100 µM
TGI [46]: > 100 µM
GI50 [47]: > 100 µM
TGI [47]: > 100 µM
GI50 [48]: > 100 µM
TGI [48]: > 100 µM
GI50 [49]: > 100 µM
TGI [49]: > 100 µM
GI50 [50]: > 100 µM
TGI [50]: > 100 µM
GI50 [51]: > 100 µM
TGI [51]: > 100 µM
